What was measured:
[1] = target: T1, recombinant human LSD1 protein (Homo sapiens, UniProt O60341); assay: In vitro LSD1 inhibitory activity, LSD1-HRP coupling reaction (Amplex Red); format: biochemical; conditions: LSD1 enzyme activity in vitro; 30 min preincubation; H3K4Me2 peptide
T1 construct: made in house; host or cells: E. coli
Source text: LSD1 activity was detected by using LSD1-HRP coupling reaction. […] During the reduction of H2O2 to H2O, Amplex Red acts as an electron donor and oxidizes to Resorufin for detection of fluorescence. […] Ampliflu™ Red, peroxidase, from horseradish required for the experiment was purchased from SIGMA; H3K4Me2 substrate peptide was purchased from GL Biochemical (Shanghai) Co., Ltd.

HDAC1 = target: T2, HDAC1 (Homo sapiens, UniProt Q13547); assay: In vitro HDAC1 inhibitory activity, FLUOR DE LYS HDAC1 fluorometric assay kit; format: biochemical; conditions: HDAC1 enzyme activity in vitro
T2 construct: purchased Enzo Biochem Inc
Source text: The principle was shown in the following reaction formula: HDAC1 catalyzes the deacetylation of a substrate FLUOR DE LYS® Substrate (containing an acetylated side chain), the product can react with FLUOR DE LYS® Developer II to generate fluorescence (shown in the following reaction process), and the inhibitory activity of a molecule to be detected on HDAC1 can be indirectly obtained by detecting the fluorescence intensity of the product. In this experiment, 360 nm was selected as the excitation wavelength and 460 nm as the emission wavelength for detection. FLUOR DE LYS® HDAC1 fluorometric drug discovery assay kit required for experiments was purchased from Enzo Biochem Inc.
During the test, the sample was prepared according to the specific experimental conditions of blocking the HDAC1 enzyme activity of the compound of the present invention in vitro in accordance with Table 2 below.

[2] = test system: human breast cancer cell line BT-474; assay: MTT tumor cell proliferation; format: cell-based; conditions: 72 h
Source text: (§1) MTT colorimetric method was used to detect the inhibitory activity of a series of compounds (i.e. ZZY-001 to ZZY-016, a total of 16 kinds) of the embodiment of the present invention on the proliferation of tumor cells in vitro. The full name of MTT is 3-(4,5-dimethyl-2-thiazolyl)-2,5-diphenyl-2-H-tetrazolium romide, which is a yellow dye also known as thiazolyl blue. […] DMSO can dissolve Formazan deposited in cells and the absorbance value can be measured with a enzyme marker at a wavelength of 490 nm. In a certain range of cell number, the production of Formazan is proportional to the number of cells, so the number of living cells can be inferred according to the measured OD value.
(§2) The cell suspension was inoculated on a 96-well plate at 100 μl/well and cultured in a constant temperature CO2 incubator for 24 h. Then the tested drugs were added, 100 μl/well, and cultured for 72 h. MTT was added to a 96-well plate, 20 μl/well, and reacted for 4 h in the incubator. Absorb the supernatant, add DMSO, 150 μl/well and shake for 10 min on the plate shaker. The optical density (OD value) of each well was measured by enzyme marker at the wavelength of 490 nm.

[3] = test system: human colon adenocarcinoma cell HCT116; assay: MTT tumor cell proliferation; format: cell-based
Source text: as §1, §2

[4] = test system: mouse breast cancer cell 4T1; assay: MTT tumor cell proliferation; format: cell-based; conditions: 72 h
Source text: as §1, §2

[5] = test system: mouse colon cancer cell CT26.WT; assay: MTT tumor cell proliferation; format: cell-based; conditions: 72 h
Source text: as §1, §2

[6] = test system: human breast cancer cell line MDA-MB-231; assay: MTT tumor cell proliferation; format: cell-based; conditions: 72 h
Source text: as §1
In the experiments of this embodiment, the selected cell lines are human breast cancer cell line MDA-MB-231 and BT-474, human colon adenocarcinoma cell HCT116, mouse colon cancer cell CT26.WT, mouse breast cancer cell 4T1. During the test, the cells in logarithmic phase and in good condition were digested with 0.25% trypsin digestion solution to make the adherent cells fall off, and the cell suspension (suspension cells without trypsin digestion) was made by counting 2-4×10^4 cells/ml. The cell suspension was inoculated on a 96-well plate at 100 μl/well and cultured in a constant temperature CO2 incubator for 24 h. Then the tested drugs were added, 100 μl/well, and cultured for 72 h. MTT was added to a 96-well plate, 20 μl/well, and reacted for 4 h in the incubator. Absorb the supernatant, add DMSO, 150 μl/well and shake for 10 min on the plate shaker. The optical density (OD value) of each well was measured by enzyme marker at the wavelength of 490 nm. […]

T2 sequence (Q13547 whole entry): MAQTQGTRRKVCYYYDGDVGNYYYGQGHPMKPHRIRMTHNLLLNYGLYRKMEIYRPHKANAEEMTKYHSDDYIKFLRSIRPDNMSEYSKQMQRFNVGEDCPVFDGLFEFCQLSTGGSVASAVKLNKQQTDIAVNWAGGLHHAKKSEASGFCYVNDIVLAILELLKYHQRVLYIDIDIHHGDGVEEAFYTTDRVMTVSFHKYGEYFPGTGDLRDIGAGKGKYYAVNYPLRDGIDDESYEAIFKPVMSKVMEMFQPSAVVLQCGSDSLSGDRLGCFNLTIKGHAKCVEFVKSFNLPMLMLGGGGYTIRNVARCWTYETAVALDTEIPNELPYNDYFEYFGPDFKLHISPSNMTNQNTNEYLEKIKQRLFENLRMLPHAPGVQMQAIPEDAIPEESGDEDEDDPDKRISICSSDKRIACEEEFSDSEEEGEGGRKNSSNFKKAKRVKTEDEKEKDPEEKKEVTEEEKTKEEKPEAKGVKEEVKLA

Row | Compound | IC50 [1] [nM] | IC50 (HDAC1) [nM] | further results
1 | O=C(/C=C/c1ccc(-c2ccc(N3CCCCC3)cc2)cc1)NO [ZZY-014] | 1110 | 9860 | 
2 | O=C(/C=C/c1ccc(-c2ccc(N3CCNCC3)nc2)cc1)NO [ZZY-016] | 991 | 451 | 
3 | Cc1cc(/C=C/C(=O)NO)ccc1-c1ccc(N2CCNCC2)cc1NC(=O)c1ccccc1 [ZZY-002] | 1320 | 71.6 | IC50 ([2]; Homo sapiens): 7.56 µM; IC50 ([3]; Homo sapiens, HCT-116, 72 h): 1290 nM; IC50 ([4]; Mus musculus): 5.61 µM; IC50 ([5]; Mus musculus): 31200 nM; IC50 ([6]; Homo sapiens): 1370 nM
4 | CN1CCN(c2ccc(-c3ccc(/C=C/C(=O)NO)cc3)cc2)CC1 [ZZY-012] | 16.1 | 942 | IC50 ([2]; Homo sapiens): 4.21 µM; IC50 ([3]; Homo sapiens, HCT-116, 72 h): 469 nM; IC50 ([4]; Mus musculus): 2.32 µM; IC50 ([5]; Mus musculus): 737 nM; IC50 ([6]; Homo sapiens): 1140 nM
5 | Cc1ccc(C(=O)Nc2cc(N3CCNCC3)ccc2-c2ccc(C(=O)Nc3ccccc3N)cc2C)cc1 [ZZY-005] | 5160 | 8940 | 
6 | Cc1cc(/C=C/C(=O)NO)ccc1-c1ccc(N2CCCCC2)cc1 [ZZY-013] | 1410 | 9640 | 
7 | Cc1cc(/C=C/C(=O)NO)ccc1-c1ccc(N2CCOCC2)cc1 [ZZY-007] | 477 | 1110 | 
8 | O=C(/C=C/c1ccc(-c2ccc(-n3ccnc3)cc2)cc1)NO [ZZY-010] | 8260 | 3520 | 
9 | Cc1cc(/C=C/C(=O)NO)ccc1-c1ccc(N2CCN(C)CC2)cc1 [ZZY-011] | 131 | 434 | IC50 ([2]; Homo sapiens): 5.9 µM; IC50 ([3]; Homo sapiens, HCT-116, 72 h): 728 nM; IC50 ([4]; Mus musculus): 2.6 µM; IC50 ([5]; Mus musculus): 1050 nM; IC50 ([6]; Homo sapiens): 2040 nM
10 | N[C@@H]1C[C@H]1c1ccccc1 (racemic) [TCP, tranylcypromine, reference compound] |  | > 100000 | IC50 [2]: > 10 µM; IC50 ([3]; 72 h): > 10000 nM; IC50 [4]: > 10 µM; IC50 [5]: > 10000 nM; IC50 [6]: > 10000 nM
11 | Cc1cc(/C=C/C(=O)NO)ccc1-c1ccc(N2CCNCC2)cc1 [ZZY-001] | 1550 | 671 | IC50 ([2]; Homo sapiens): 17.8 µM; IC50 ([3]; Homo sapiens, HCT-116, 72 h): 1540 nM; IC50 ([4]; Mus musculus): 3.87 µM; IC50 ([5]; Mus musculus): 2200 nM; IC50 ([6]; Homo sapiens): 2320 nM
12 | Cc1cc(/C=C/C(=O)NO)ccc1-c1ccc(-n2ccnc2)cc1 [ZZY-009] | 1400 | 2800 | 
13 | Cc1cc(C(=O)Nc2ccccc2N)ccc1-c1ccc(N2CCNCC2)cc1 [ZZY-006] | 2380 | 5380 | 
14 | Cc1cc(/C=C/C(=O)NO)ccc1-c1ccc(N2CCNCC2)nc1 [ZZY-015] | 879 | 262 | 
15 | O=C(/C=C/c1ccc(-c2ccc(N3CCOCC3)cc2)cc1)NO [ZZY-008] | 716 | 9360 | 

Source: patent publication US20200331882A1, “COMPOUND FOR SIMULTANEOUSLY INHIBITING LSD1 AND HDAC TARGETS AND APPLICATION THEREOF” (PEKING UNIVERSITY SHENZHEN GRADUATE SCHOOL, priority 2018, published 2020)
